In series [1] the test system is mouse reticulum cell sarcoma (M 5076). The series can be described thus: Suppression of tumor formation in vivo (M 5076). The arrangement: species or system C57BL/6N mice. Conditions: 30 mg/day subcutaneously, 10 injections over 12 days; tumor volume one day after the final injection. The source says: The tumor used in this assay was mouse reticulum cell sarcoma (M 5076), maintained by intraperitoneal transplantation into male C57BL/6N mice. The tumor cells in ascites were collected by centrifugation, and suspended in saline. The cell suspension (2 x 10⁶ cells/100 »l/mouse) was inoculated into right flanks of mice. Tumor-bearing mice were subcutaneously treated with the compound (I) (shown by Example Numbers) suspended in 5% arabic gum solution containing 1% of ethanol, for 12 days beginning one day after tumor inoculation (10 injections). The tumor growth was determined by measuring tumor size in two directions with calipers at intervals of a few days. The tumor volumes were calculated by the following formula. Tumor volume (mm³) = length x (width)² […]. [formula]

For series [2], the system named is Human umbilical vein endothelial cells (HUVE). The series can be described thus: Inhibition of human endothelial cell growth (MTT). It counts as cell-based. Conditions: rbFGF 2 ng/ml, 5 day culture; for IC50: Homo sapiens, Endothelial cell, 120 h, read-out: (IC₅₀). How it is done: Human umbilical vein endothelial cells (HUVE) were isolated by perfusion of an umbilical vein with a trypsin-containing medium. HUVE were cultured in GIT medium (Diago Eiyou Kagaku, Co., Japan) supplemented with 2.5% fetal bovine serum and 2.0 ng/ml of recombinant human basic fibroblast growth factor (rbFGF, Biotechnology Research Laboratories, Takeda, Osaka, Japan) at 37°C under 5% CO₂ and 7% O₂. HUVE were plated on 96-well microtiter plates (Nunc, 1-67008) at the cell density of 2 x 10³/100 »l of medium. The following day, 100 »l of medium containing rbFGF (2 ng/ml at the final concentration) and each compound (I) (shown by Example Numbers) at various concentrations were added to each well. […] After 5 day culture, medium was removed, 100 »l of 1 mg/ml of MTT (3-(4,5-dimethyl-2-thiazolyl)- 2,5-diphenyl-2H-tetrazolium bromide) solution was added to wells, and microtiters were kept at 37°C for 4 hours. Then, 100 »l of 10% sodium dodecyl sulfate (SDS) solution was added to wells, microtiters were kept at 37° for 5-6 hours. To determine the effects on cell number, the optical density ([…]) of each well was measured using an optical densitometer. […]

For series [3], the system named is bFGF-induced angiogenesis. The series can be described thus: rat cornea micropocket method (angiogenesis inhibitory activity). To be noted: rats with angiogenesis inhibitory activity / rats tested, sample pellet 20 »g. It counts as in vivo, Sprague-Dawley rats. Here is the method:
The product compound (I) obtained in the examples given below were evaluated for angiogenesis inhibitory activity by the rat cornea micropocket method.
Essentially the method of Gimbrone et al. [J. National Cancer Institute, 52, 413-419 (1974)] was followed. Thus, adult male Sprague-Dawley rats (11 to 16 weeks of age) were anesthetized with nembutal and locally anesthetized by instillation of xylocaine eyedrops onto the eyeball. The cornea was incised to a length of about 2 mm at about 2mm inside from the corneal circumference by means of an injection needle, and a sustained release pellet containing basic fibroblast growth factor (bFGF; bovine brain-derived, purified product; R & D) and a sustained release pellet containing the test sample were inserted side by side into the incision so that the bFGF pellet was located on the central side in the cornea. In the control group, the bFGF pellet and a sample-free pellet were inserted into the cornea. After 7 days and after 10 days, the cornea was observed under a stereoscopic microscope.
The sustained release pellets were prepared in the following manner. An ethylene-vinyl acetate copolymer (Takeda Chemical Industries) was dissolved in dichloromethane to a concentration of 8%. A 3-»l portion of the solution was air-dried on a glass dish, an aqueous solution of bFGF (250 ng) was then placed thereon and air-dried and, finally 3 »l of the above ethylene-vinyl acetate copolymer solution was placed further thereon and air-dried to give a laminate consisting of two copolymer layers and a bFGF layer sandwiched therebetween. This sandwich sheet was made round into a bFGF pellet. The test sample pellets were prepared by dissolving each sample in ethanol in a concentration of 20 »g/2 »l, mixing the solution (2 »l) with 6 »l of an ethylene-vinyl acetate copolymer solution, air-drying the mixed solution on a glass dish and making the thus-obtained sheet round.

The test system of series [4] is Bovine capillary endothelial cells. Kind of series: Boyden chamber assay, capillary endothelial cell migration. It counts as cell-based. Conditions: endothelial mitogen 200 »g/ml, 4 hours. Here is the method:
The Boyden chamber assay was carried out using a modification of the method of Falk et al., J. Immunol. Meth., 33:239-247 (1980) as follows: Bovine capillary endothelial cells were plated at 1.5 x 10⁴ cells per well in serum-free DMEM (Dulbecco's Modified Eagle's Medium) on one side of nucleopore filters pre-coated with fibronectin (7.3 »g fibronectin/ml PBS). […] Cells were exposed to endothelial mitogen (Biomedical Technologies, Massachusetts) at 200 »g/ml and different concentrations of the AGM-1470 in serum-free DMEM for 4 hours at 37°C. At the end of this incubation, the number of cells that migrated through 8» pores in the filters was determined by counting cells with an ocular grid at 100 X in quadruplicate.

Another series concerns B16 Mouse Melanoma. Format: in vivo. Here is the method: Using the B16 Mouse Melanoma model described in Folkman et al., Science, 221:719-725 (1983), the angiogenesis inhibitory activity of AGM-1470 was further evaluated. Treatment (Rx) usually started when tumors were approximately 70-100 mm³, approximately 9 to 10 days after inoculation. Tumors were matched for size before inclusion in treated and untreated groups. AGM-1470 was dissolved in isotonic solution by incubating with glass beads and vigorously shaking overnight at 4°C. This preparation was administered subcutaneously at 30 mg/kg every other day.
Tumor growth is presented as a T/C ratio, as defined below. In essence, a ratio equal to "+ 1" means no inhibition, a ratio equal to "0" means complete suppression of growth, and a negative ratio indicates tumor regression. [formula]

The test system of series [5] is Chick Chorioallantoic Membranes. Kind of series: shell-less chorioallantoic membrane (CAM) assay. It counts as in vivo. To be noted: after 48 - 72 hours. Here is the method: The shell-less chorioallantoic membrane (CAM) assay was carried out by the method of Folkman et al. (R.Crum. S.Szabo and J.Folkman; Science. 230. 1375 (1985)) as follows: three-day chick embryos were removed from their shells to petri dishes (Falcon 1005) under sterile hood and cultured for further 3 days.
AGM-1470 was dissolved to a 0.45% methylcellulose aqueous solution and aliquots of 10 »l were pipetted onto Teflon rods. After the solution had dried, the methylcellulose disks (about 2 mm in diameter) containing the compound were implanted on the CAM of 6-day embryos.
An avascular zone represents a region in which regression of pre-existing vessels has occured.
Percent of avascular zones was calculated by counting the disks forming avascular zones per the total disks tested. In each group there were 12 to 16 embryos.

≈ marks a conversion by molar mass, not a printed value. Like-named read-outs stand apart in the source and are kept apart here. Marks after values point to notes of the source that are not given here.

Regarding “O-Chloroacetylcarbamoyl-6'b-hydroxyfumagillol [Example 76]”, in series [1], the “T/C (%)” value is 29%. In series [2], the “(IC₅₀)” value came to 0.12 ng/mL.
Take `CO[C@@H]1[C@H](OC(=O)NC(=O)CCl)CC[C@]2(CO2)[C@H]1[C@@]1(C)O[C@@H]1CCC(C)C` [Example 51, O-Chloroacetylcarbamoyldihydrofumagillol]: the “T/C (%)” value in series [1] is given as 22%. In series [3] (judged after 10 days), the Inhibition rate is 7/14. In addition, in series [2], the IC50 came to 0.14 ng/mL (≈ 0.347 nM).
`CO[C@@H]1[C@H](OC(=O)NC(=O)CCl)CC[C@]2(CO2)[C@H]1[C@@]1(C)O[C@@H]1CC=C(C)C` [Example 8, O-Chloroacetylcarbamoylfumagillol]: the IC50 is approximately 0.1 ng/mL (≈ 0.249 nM) in series [4] (Bos taurus, Endothelial cell, read-out: Half maximal inhibition of endothelial mitogen-induced migration) and 0.01 ng/mL (≈ 0.0249 nM) in series [2]. Moreover, the “inhibition of cell migration” value in series [4] (dose of 100 »g/ml) is reported as “completely inhibited”. Also, in series [4], the “Significant inhibition of migration, doses as low as” value turned out to be 10 femptograms/ml. Further, the “T/C (%)” value in series [1] came out at 14%. Besides, the Inhibition rate in series [3] (judged after 7 days) is listed as 6/6*. Also, the “treated remained alive past day 55” value with B16 Mouse Melanoma (30 mg/kg subcutaneously every other day) is “Day 37 100% untreated dead 50% AGM-1470 treated dead (50% of treated remained alive past day 55)”. Also, in the series on B16 Mouse Melanoma (Day 37 (100% untreated dead), 30 mg/kg subcutaneously every other day), the AGM-1470 treated dead entry was “Day 37 100% untreated dead 50% AGM-1470 treated dead (50% of treated remained alive past day 55)”. Moreover, the toxicity entry with B16 Mouse Melanoma (mouse, in vivo) was “little or no toxicity”. Besides, the T/C worked out at 0.47 in the series on B16 Mouse Melanoma (time of Rx 2 wk, 30 mg/kg subcutaneously every other day) and 0.20 in the series with B16 Mouse Melanoma (time of Rx 3 wk, 30 mg/kg subcutaneously every other day). Also, the “percent of avascular zones” value is recorded as 33 in series [5] (dose 1 »g/10 »l methylcellulose), 62 in series [5] (dose 10 »g/10 »l methylcellulose) and 100 in series [5] (dose 25 »g/10 »l methylcellulose).
Regarding `CO[C@@H]1[C@H](OC(=O)NC(=O)CSc2ccncc2)CC[C@]2(CO2)[C@H]1[C@@]1(C)O[C@@H]1CC=C(C)C` [Example 64, O-[(4-Pyridyl)thioacetylcarbamoyl]fumagillol], the Inhibition rate in series [3] (judged after 10 days) is 5/5.
Take `CO[C@@H]1[C@H](OC(=O)NC(=O)COC(C)=O)CC[C@]2(CO2)[C@H]1[C@@]1(C)O[C@@H]1CC=C(C)C` [Example 40, O-Acetoxyacetylcarbamoylfumagillol]: the Inhibition rate in series [3] (judged after 10 days) is on record as 6/6.
Still for that read-out and setting: as for `CO[C@@H]1[C@H](OC(=O)NC(=O)CSc2ccccn2)CC[C@]2(CO2)[C@H]1[C@@]1(C)O[C@@H]1CC=C(C)C` [Example 63, O-[(2-Pyridyl)thioacetylcarbamoyl]fumagillol], the figure is 6/6; as for `CO[C@@H]1[C@H](OC(=O)n2ccnc2)CC[C@]2(CO2)[C@H]1[C@@]1(C)O[C@@H]1CC=C(C)C` [Example 27, O-(1-Imidazolylcarbonyl)fumagillol], 3/7; as for `CO[C@@H]1[C@H](OC(=O)NC(=O)CSC(C)=O)CC[C@]2(CO2)[C@H]1[C@@]1(C)O[C@@H]1CC=C(C)C` [Example 41, O-Acetylthioacetylcarbamoylfumagillol], 2/4.
With `CO[C@@H]1[C@H](OC(N)=O)CC[C@]2(CO2)[C@H]1[C@@]1(C)O[C@@H]1CC=C(C)C` [Example 23, O-Carbamoylfumagillol], the Inhibition rate in series [3] (judged after 10 days) was 6/8.
For the molecule `CO[C@@H]1[C@H](OC(c2ccccc2)c2ccccc2)CC[C@]2(CO2)[C@H]1[C@@]1(C)O[C@@H]1CC=C(C)C` [Example 45, O-Diphenylmethylfumagillol], the Inhibition rate in series [3] (judged after 10 days) is listed as 8/13.
In the case of `CO[C@@H]1[C@H](OC(=O)NC(=O)CSc2cccc3ccccc23)CC[C@]2(CO2)[C@H]1[C@@]1(C)O[C@@H]1CC=C(C)C` [Example 54, O-(1-Naphthalenethioacetylcarbamoyl)fumagillol], in series [3] (judged after 10 days), the Inhibition rate was 5/5.
In the case of `C=CC(=O)NC(=O)O[C@@H]1CC[C@]2(CO2)[C@@H]([C@@]2(C)O[C@@H]2CC=C(C)C)[C@@H]1OC` [Example 58, O-Acryloylcarbamoylfumagillol], the Inhibition rate in series [3] (judged after 10 days) was 6/6.
The same measure, in the same setting: the value for `CO[C@@H]1[C@H](OC(=O)NC(=O)CSc2nnc(C)s2)CC[C@]2(CO2)[C@H]1[C@@]1(C)O[C@@H]1CC=C(C)C` [Example 53, O-[(2-methyl-1,3,4-thiadiazol-5-yl)thioacetylcarbamoyl]fumagillol] was 8/8; that for `CO[C@@H]1[C@H](OC(=O)NC(=O)CSC)CC[C@]2(CO2)[C@H]1[C@@]1(C)O[C@@H]1CC=C(C)C` [Example 65, O-(Methylthioacetylcarbamoyl)fumagillol] was 8/8.
Regarding `CO[C@@H]1[C@H](OC(=O)NC(=O)CSc2nc3ccccc3s2)CC[C@]2(CO2)[C@H]1[C@@]1(C)O[C@@H]1CC=C(C)C` [Example 42, O-(2-Benzothiazolylthioacetylcarbamoyl)fumagillol], the Inhibition rate in series [3] (judged after 10 days) is reported as 7/7.
Same read-out and setting: the value for `CCN(CC)CC(=O)NC(=O)O[C@@H]1CC[C@]2(CO2)[C@@H]([C@@]2(C)O[C@@H]2CC=C(C)C)[C@@H]1OC` [Example 44, O-Diethylaminoacetylcarbamoylfumagillol] was 7/7.

(Values after patent EP0357061B1, “Angiogenesis inhibitory agent” (priority 1988, dated 1990).)
